Measured values as given in US20100234442A1, “Compositions and Methods for Treatment and Prevention of Cardiovascular Disease” (Nucitec S.A. de C.V., priority 2009, published 2010).

Test system: hypercholesterolemic patients
Test: 8-week, randomized, double-blind, active-controlled, parallel-group study of vascular markers in hypercholesterolemic patients
Format: in vivo, human
Procedure: This was a 8-week, randomized, double-blind, active-controlled, parallel-group study. All patients provided written, informed consent before the start of the study.
Patients, investigator staff, persons performing the assessment, and data analysts remained blinded to the identity of the treatment from the time of randomization until data base lock. Treatments were all identical in packaging, labeling, schedule of administration and appearance. Treatments were administered to patients via a single pill.
20 hypercholesterolemic patients, ≧45 years old, were compared in this study. Patients were classified into one of four groups, consisting of five patients in each group.
Group I was treated with a single daily dose of simvastatin alone (20 mg). Group II was treated with a single daily dose simvastatin (20 mg) and acetylsalicylic acid (75 mg). Group III was treated with a single daily dose of simvastatin (20 mg) and enalapril (10 mg). Group IV was treated with a single daily dose of simvastatin (20 mg), acetylsalicylic acid (75 mg), and enalapril (10 mg). All patients were treated for eight weeks.
The primary efficacy variable was the change from the baseline to the final assessment in vascular markers of LDL-Cholesterol (LDL-C), C Reactive Protein (CRP), Interleukin 6 (IL-6), Systolic Blood Pressure (SBP), and nitric oxide (NO).

[1] = change from baseline to final, eight weeks
[2] = final assessment after eight weeks, single daily oral dose

CCC(C)(C)C(=O)O[C@H]1C[C@@H](C)C=C2C=C[C@H](C)[C@H](CC[C@@H]3C[C@@H](O)CC(=O)O3)[C@H]21 [Simvastatin alone, simvastatin]
IL-6 Baseline (baseline, before treatment): 4.6 pg/mL | Nitric oxide Baseline (baseline, before treatment): 87 µmol/L | SBP Baseline (baseline, before treatment): 142 mmHg | LDL-C Baseline (baseline, before treatment, five patients per group): 159 mg/dL | CRP % Δ [1]: −18% | IL-6 % Δ [1]: −39% | LDL-C % Δ [1]: −38% | Nitric oxide % Δ [1]: −9% | SBP % Δ [1]: −0.8% | IL-6 Final [2]: 2.8 pg/mL | LDL-C Final [2]: 99 mg/dL | Nitric oxide Final [2]: 79 µmol/L | SBP Final [2]: 141 mmHg
